Laboratory results taken from patent publication US20250032651A1, “[177LU] LUTETIUM-PSMA I&T COMPOSITION AND DOSIMETRY, KIT, METHOD OF MAKING, AND METHOD OF USING THEREOF” (Curium US LLC, priority 2022, published 2025).

Assay: Normal organ dosimetry Cycle 1: SPECT/CT, TIACs, OLINDA 2.2.3 absorbed radiation dose
Format: in vivo, human
Details: for Absorbed Dose, min / Absorbed Dose, Mean / Absorbed Dose, max / Absorbed Dose, median: Cycle 1
Protocol: This Example presents the biodistribution, dosimetry, and pharmacokinetics (PK) results of a PK/Dosimetry sub-study performed as part of a Phase III trial. Twenty-seven (27) patients were administered a target activity of 7.4±10% GBq of ^177Lu-PSMA-I&T and underwent single photon emission computed tomography (SPECT)/computed tomography (CT) imaging at four timepoints (4 h, 24 h, 48 h, and 168 h). Image data was analysed to compute time-activity curves (TACs) and subsequently time-integrated activity coefficients (TIACs) in each organ of interest and in organs showing appreciable and meaningful ^177Lu-PSMA-I&T activity. Organ Level Internal Dose Assessment (OLINDA 2.2.3) was used to compute organ and whole body absorbed radiation doses for each patient.
All participating sites underwent a rigorous site setup process during which all dose calibrators, scanners, and gamma counters used in the sub-study were calibrated. Sites were allowed to enroll patients in the sub-study only after the completion and approval of all site setup processes by Invicro. Patients underwent SPECT/CT imaging, with anatomical coverage typically extending from the salivary glands to the pelvis, following the administration of a targeted 7.4±10% GBq of ^177Lu-PSMA-I&T at cycle 1. SPECT/CT imaging was performed at four timepoints: 4 h, 24 h, 48 h, and 168 h post-injection. Additionally, a subset of patients imaged at Cycle 1 (16 out of 27), were also imaged at Cycle 3 (Table 2).
The imaging data was analyzed using Invicro's VivoQuant software, a validated software used in a 21 CFR § 11-compliant workflow. The general quantification approach was based on the principles detailed in the Medical Internal Radiation Dose (MIRD) Pamphlet No. 16, No 23, and No 26 as appropriate.
Volume of interest (VOI) (kidneys, bladder, liver, lumbar vertebrae L2-L4, lacrimal glands, salivary glands [parotid and submandibular glands], and whole body) were delineated on each dataset by a trained image analyst. […] Organs were segmented either by drawing the entire contour of the organ, or by placing a sphere in a representative region of the organ and then multiplying by the organ's effective mass (based on patient's height and weight). Segmentation methods for each organ are specified in Table 3 and were consistently applied to each patient.
Clearance of the radiopharmaceutical was derived from a data-appropriate fit of each organ's TAC. Depending on the TAC's shape, the data was fitted with the sum of one, two, or three exponentials, or using a rise and fall model. Fitting was performed with in-house Python software. TIACs were calculated through analytical integration of the curve fit extrapolated to infinity. […] A whole-body TAC was derived from delineating the imaged body. The remainder activity was determined by subtracting the cumulative organ TIACs from the whole body TIAC.
Organ TIACs were input into OLINDA 2.2.3 for the computation of organ and whole-body absorbed doses, using International Commission on Radiological Protection (ICRP)-103 weighing factors. The ICRP-89 derived male phantom was used for dose estimation. Organs and body mass as defined by ICRP-89 were scaled based on height and mass using patient effective mass.^4 The voiding bladder model as implemented in OLINDA was used to determine bladder TIAC, assuming a voiding interval of 4 hours. The human alimentary tract model (HAT model) described in ICRP 100 and implemented in OLINDA was used to compute doses to the small intestine, right colon, left colon and rectum for patients showing clearance through the GI tract. The fraction of injected activity (fIA) cleared via the GI tract was determined by taking the peak fIA in the GI tract over all the imaging timepoints. […] The Red Marrow mass in L2-L4 was assumed to be 6.7% of the total red marrow mass.

[1] = Prostate, 16 patients imaged at cycle 1 and 3
[2] = Rectum, 16 patients imaged at cycle 1 and 3
[3] = Red Marrow, 16 patients imaged at cycle 1 and 3
[4] = Right Colon, 16 patients imaged at cycle 1 and 3
[5] = Salivary Glands, 16 patients imaged at cycle 1 and 3
[6] = Salivary Glands, n = 26, patient 12-004 excluded
[7] = Small intestine, 16 patients imaged at cycle 1 and 3
[8] = Spleen, 16 patients imaged at cycle 1 and 3

O=C([O-])CC[C@H](NC(=O)N[C@@H](CCCCNC(=O)CCCCCCC(=O)NCCCC[C@@H](NC(=O)[C@@H](Cc1ccccc1)NC(=O)[C@@H](Cc1ccc(O)c(I)c1)NC(=O)CC[C@H](C(=O)[O-])N1CCN(CC(=O)[O-])CCN(CC(=O)[O-])CCN(CC(=O)[O-])CC1)C(=O)[O-])C(=O)[O-])C(=O)[O-].[177Lu+3].[H+].[H+].[H+].[H+].[H+] [^177Lu-PSMA I&T, (3S,7S,26R,29R,32R,37R)-29-benzyl-32-(4-hydroxy-3-iodobenzyl)-5,13,20,28,31,34-hexaoxo-37-(4,7,10-tris(carboxymethyl)-1,4,7,10-tetraazacyclododecan-1-yl)-4,6,12,21,27,30,33-heptaazaheptatriacontane-1,3,7,26,37-pentacarboxylic acid; lutetium-177 (III)]
Absorbed Dose, min (Pancreas, n = 26): 0.00 Gy/GBq | Absorbed Dose in Cycle 1, Mean (Pancreas, N = 16): 0.02 Gy/GBq | Absorbed Dose in Cycle 1, max (Pancreas, N = 16): 0.07 Gy/GBq | Absorbed Dose in Cycle 1, min (Pancreas, N = 16): 0.00 Gy/GBq | Absorbed Dose in Cycle 1, Mean [1]: 0.02 Gy/GBq | Absorbed Dose in Cycle 1, max [1]: 0.07 Gy/GBq | Absorbed Dose in Cycle 1, min [1]: 0.01 Gy/GBq | Absorbed Dose, Mean (Prostate, n = 26): 0.02 Gy/GBq | Absorbed Dose, max (Prostate, n = 26): 0.07 Gy/GBq | Absorbed Dose, median (Prostate, n = 26): 0.01 Gy/GBq | Absorbed Dose, min (Prostate, n = 26): 0.01 Gy/GBq | Absorbed Dose in Cycle 1, Mean (Prostate, N = 16): 0.02 Gy/GBq | Absorbed Dose in Cycle 1, max (Prostate, N = 16): 0.07 Gy/GBq | Absorbed Dose in Cycle 1, min (Prostate, N = 16): 0.01 Gy/GBq | Absorbed Dose in Cycle 1, Mean [2]: 0.50 Gy/GBq | Absorbed Dose in Cycle 1, max [2]: 1.46 Gy/GBq | Absorbed Dose in Cycle 1, min [2]: 0.01 Gy/GBq | Absorbed Dose, Mean (Rectum, n = 26): 0.44 Gy/GBq | Absorbed Dose, max (Rectum, n = 26): 1.46 Gy/GBq | Absorbed Dose, median (Rectum, n = 26): 0.39 Gy/GBq | Absorbed Dose, min (Rectum, n = 26): 0.01 Gy/GBq | Absorbed Dose in Cycle 1, Mean (Rectum, N = 16): 0.50 Gy/GBq | Absorbed Dose in Cycle 1, max (Rectum, N = 16): 1.46 Gy/GBq | Absorbed Dose in Cycle 1, min (Rectum, N = 16): 0.01 Gy/GBq | Absorbed Dose in Cycle 1, Mean [3]: 0.05 Gy/GBq | Absorbed Dose in Cycle 1, max [3]: 0.28 Gy/GBq | Absorbed Dose in Cycle 1, min [3]: 0.00 Gy/GBq | Absorbed Dose, Mean (Red Marrow, n = 26): 0.08 Gy/GBq | Absorbed Dose, max (Red Marrow, n = 26): 0.49 Gy/GBq | Absorbed Dose, median (Red Marrow, n = 26): 0.03 Gy/GBq | Absorbed Dose, min (Red Marrow, n = 26): 0.00 Gy/GBq | Absorbed Dose in Cycle 1, Mean (Red Marrow, N = 16): 0.05 Gy/GBq | Absorbed Dose in Cycle 1, max (Red Marrow, N = 16): 0.28 Gy/GBq | Absorbed Dose in Cycle 1, min (Red Marrow, N = 16): 0.00 Gy/GBq | Absorbed Dose in Cycle 1, Mean [4]: 0.28 Gy/GBq | Absorbed Dose in Cycle 1, max [4]: 0.82 Gy/GBq | Absorbed Dose in Cycle 1, min [4]: 0.01 Gy/GBq | Absorbed Dose, Mean (Right Colon, n = 26): 0.25 Gy/GBq | Absorbed Dose, max (Right Colon, n = 26): 0.82 Gy/GBq | Absorbed Dose, median (Right Colon, n = 26): 0.22 Gy/GBq | Absorbed Dose, min (Right Colon, n = 26): 0.01 Gy/GBq | Absorbed Dose in Cycle 1, Mean (Right Colon, N = 16): 0.28 Gy/GBq | Absorbed Dose in Cycle 1, max (Right Colon, N = 16): 0.82 Gy/GBq | Absorbed Dose in Cycle 1, min (Right Colon, N = 16): 0.01 Gy/GBq | Absorbed Dose in Cycle 1, Mean [5]: 0.17 Gy/GBq | Absorbed Dose in Cycle 1, max [5]: 0.80 Gy/GBq | Absorbed Dose in Cycle 1, min [5]: 0.03 Gy/GBq | Absorbed Dose, Mean [6]: 0.19 Gy/GBq | Absorbed Dose, max [6]: 0.80 Gy/GBq | Absorbed Dose, median [6]: 0.15 Gy/GBq | Absorbed Dose, min [6]: 0.03 Gy/GBq | Absorbed Dose in Cycle 1, Mean (Salivary Glands, N = 16): 0.17 Gy/GBq | Absorbed Dose in Cycle 1, max (Salivary Glands, N = 16): 0.80 Gy/GBq | Absorbed Dose in Cycle 1, min (Salivary Glands, N = 16): 0.03 Gy/GBq | Absorbed Dose in Cycle 1, Mean [7]: 0.06 Gy/GBq | Absorbed Dose in Cycle 1, max [7]: 0.15 Gy/GBq | Absorbed Dose in Cycle 1, min [7]: 0.01 Gy/GBq | Absorbed Dose, Mean (Small intestine, n = 26): 0.05 Gy/GBq | Absorbed Dose, max (Small intestine, n = 26): 0.15 Gy/GBq | Absorbed Dose, median (Small intestine, n = 26): 0.04 Gy/GBq | Absorbed Dose, min (Small intestine, n = 26): 0.01 Gy/GBq | Absorbed Dose in Cycle 1, Mean (Small intestine, N = 16): 0.06 Gy/GBq | Absorbed Dose in Cycle 1, max (Small intestine, N = 16): 0.15 Gy/GBq | Absorbed Dose in Cycle 1, min (Small intestine, N = 16): 0.01 Gy/GBq | Absorbed Dose in Cycle 1, Mean [8]: 0.03 Gy/GBq | Absorbed Dose in Cycle 1, max [8]: 0.11 Gy/GBq | Absorbed Dose in Cycle 1, min [8]: 0.01 Gy/GBq
